Results taken from patent publication US8835124B2, “Method for treating cancer with agents that bind phosphorylated CDC27” (The Nemours Foundation, priority 2011, dated 2014).

How the values were obtained:
[1] = tested on: DAOY medulloblastoma cells; test: Cell cycle analysis by flow cytometry after release from thymidine/nocodazole mitotic block; format: cell-based, human; conditions: for cells remained in G2/M: 10 μM curcumin; for G0/G1 / G2/M / S / Sub G0/G1: DAOY released from thymidine/nocodazole block
Procedure: DNA was stained with 100 μg/ml propidium iodide (PI) in hypotonic citrate buffer with 20 μg/ml ribonuclease A. Stained nuclei were analyzed for DNA-PI fluorescence using an Accuri C6 flow cytometer (Accuri Cytometers Inc., Ann Arbor, Mich.). Resulting DNA distributions for sub G0/G1, G0/G1, S and G2/M phase of the cell cycle were analyzed with CFlow plus software (Accuri Cytometers Inc).
(§1) For analysis of cell cycle profiles after mitotic block, cells were synchronized with 2 mM thymidine for 24 hours. The block was released for 3 hours and cells were arrested in prometaphase with 100 nM nocodazole for 12 hours. For G1/S arrest, cells were synchronized for 18 hours with 2 mM thymidine, released for 9 hours, followed by a second thymidine arrest for 18 hours. The block was then released in the presence of DMSO or curcumin as indicated and the cells were processed as described above.
as §1, with “above. […] The data from these cell cycle studies are the mean±SEM of three independent experiments. […]” for “above.”

[2] = molecular target: T1, Cdc27 (Homo sapiens, UniProt P30260); test: Cdc27 immunoblot, molecular weight shift (crosslinking) in treated DAOY cells; format: cell-based
T1 construct: endogenous in cells; host or cells: DAOY medulloblastoma cells
Procedure: Cell lysates were prepared in a buffer containing 20 mM Iris (pH 7.5), 150 mM NaCl, 1 mM EDTA, 1 mM EGTA, 0.1% Triton X-100, 2.5 mM sodium pyrophosphate, 1 mM β-glycerol phosphate, 1 mM sodium vanadate, 1 mM phenylmethylsulfonyl fluoride and 5 μg/ml of antipapain, leupeptin and pepstatin (protease inhibitor cocktail). Protein concentrations were determined by the Dc protein assay (Bio-Rad, Hercules, Calif.). Equal amounts of protein were resolved by SDS-PAGE and transferred to nitrocellulose. The membranes were blocked in 5% non-fat milk in Tris-buffered saline with 0.1% Tween-20 (TBST). Primary antibodies diluted in 5% bovine serum albumin/TBST were incubated overnight at 4° C. and HRP-conjugated secondary antibodies in 5% non-fat milk/TBST for 2 hours at room temperature. Protein bands were visualized by Enhanced Chemiluminescence Plus (GE Healthcare, Piscataway, N.J.).

[3] = molecular target: T1, Cdc27; test: Pull-down from DAOY cell lysates with curcumin-bound Sepharose beads; format: binding; conditions: two independent bead preparations, vs control beads
Procedure: After washing, unoccupied binding sites were blocked with 1 M ethanolamine by overnight incubation. Low (0.1 M acetate buffer, pH 4) and high (0.1 M Tris-HCl, pH 8, 0.5 M NaCl) pH buffers were used each three times to wash and equilibrate the beads. Control beads were prepared in parallel with curcumin-coupled beads but curcumin was omitted. DAOY cell lysates were prepared in a lysis buffer of 100 mM HEPES, pH 7.6, 300 mM NaCl, 0.1% Triton X-100, 2 mM EDTA, 2 mM EGTA supplemented with phosphatase and protease inhibitors. 500 μg of protein was mixed with 20 μl of curcumin-coupled Sepharose beads and incubated for 3 hours at 4° C. After washing bound proteins were eluted with 1×SDS-PAGE sample buffer and processed for immunoblotting.
DAOY cell lysates were incubated with curcumin-bound Sepharose beads and then subjected to SDS-PAGE and immunoblotting with Cdc27. A BubR1 immunoblot was included as control for non-specific binding. […] The cell lysates were separated by SDS-PAGE and immunoblotted for Cdc27. […] Data represent mean±SEM of three independent experiments.

[4] = molecular target: T2, Cdc27 (Mus musculus, UniProt A2A6Q5); test: Cdc27 immunoblot of medulloblastoma samples from treated Smo/Smo mice; format: in vivo; conditions: curcumin-treated vs corn oil control mice
T2 construct: from tissue; host or cells: medulloblastoma tumours of Smo/Smo mice
Procedure: Tumors of control and curcumin-treated mice were harvested exactly as described (Lee et al., 2011, BMC Cancer 11:144). Animal experiments were performed according to the NIH Guide for the Care and Use of Experimental Animals and approved by our Institutional Animal Care and Use Committee.
Cdc27 levels in the Smo/Smo mouse tumors were determined by immunoblot of Cdc27. Tubulin is shown for equal loading. The Cdc27 levels were reduced (FIG. 4) when compared with control mice.

[5] = tested on: MDCK cells; test: LDH release cytotoxicity assay; format: cell-based; conditions: 24 hours, 0, 5, 10 and 20 μM; low phosphorylated Cdc27
Procedure: Lactate dehydrogenase (LDH) levels as a measure of cell death were determined using the Non-radioactive Cytotoxicity kit (Promega, Madison, Wis.) according to manufacturer's instructions. […] Cell debris was removed by centrifugation. Viable cell LDH was collected from cells lysed by freezing for 15 minutes at −70° C. followed by thawing at 37° C. The medium was collected and cleared from cell debris by centrifugation. The relative release of LDH was determined as the ratio of released LDH versus total LDH from viable cells.

[6] = tested on: NT2 and MDCK cells; test: Cell cycle progression after release from thymidine/nocodazole block; format: cell-based; conditions: different concentrations of curcumin
Procedure: as §1
NT2 and MDCK cells were arrested with thymidine/nocodazole treatment. […] DNA contents were analyzed for cell cycle progression. The data shown in FIG. 7 are expressed as mean±SEM of three independent experiments.

[7] = tested on: acetylated tubulin; test: Acetylated tubulin accumulation in cell lines; format: cell-based; conditions: cells with low levels of phosphorylated Cdc27; 20 μM curcumin for 0, 4, 8 and 24 hours
Procedure: Accumulation of acetylated tubulin was assayed. […] Thus, loss of Cdc27 function or p55Cdc20 association with Cdc27 may be linked to increased tubulin acetylation in curcumin-treated cells.

T1 sequence (P30260 1-830 isoform P30260-2): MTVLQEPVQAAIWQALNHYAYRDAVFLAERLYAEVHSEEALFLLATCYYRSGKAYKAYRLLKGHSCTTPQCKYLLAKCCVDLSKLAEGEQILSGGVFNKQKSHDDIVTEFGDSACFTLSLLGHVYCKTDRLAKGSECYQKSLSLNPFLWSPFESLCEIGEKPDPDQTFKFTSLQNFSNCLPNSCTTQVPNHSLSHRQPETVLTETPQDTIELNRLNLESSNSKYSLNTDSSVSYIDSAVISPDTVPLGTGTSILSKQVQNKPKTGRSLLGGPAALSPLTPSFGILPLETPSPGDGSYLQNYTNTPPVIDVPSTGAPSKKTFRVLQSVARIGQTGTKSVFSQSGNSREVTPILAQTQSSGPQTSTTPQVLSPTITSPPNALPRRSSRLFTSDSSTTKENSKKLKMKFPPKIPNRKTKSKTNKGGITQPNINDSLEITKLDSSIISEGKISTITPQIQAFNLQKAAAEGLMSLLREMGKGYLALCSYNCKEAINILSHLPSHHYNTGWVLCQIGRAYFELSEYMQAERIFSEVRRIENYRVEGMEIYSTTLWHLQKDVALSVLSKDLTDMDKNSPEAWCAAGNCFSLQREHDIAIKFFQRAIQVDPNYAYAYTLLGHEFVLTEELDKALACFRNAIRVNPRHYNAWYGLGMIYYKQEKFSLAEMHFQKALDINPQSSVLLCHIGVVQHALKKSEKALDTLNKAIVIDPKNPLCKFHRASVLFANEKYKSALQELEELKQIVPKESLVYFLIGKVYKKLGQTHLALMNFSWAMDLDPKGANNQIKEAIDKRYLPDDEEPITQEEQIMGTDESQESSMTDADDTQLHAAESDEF
T2 sequence (A2A6Q5 whole entry): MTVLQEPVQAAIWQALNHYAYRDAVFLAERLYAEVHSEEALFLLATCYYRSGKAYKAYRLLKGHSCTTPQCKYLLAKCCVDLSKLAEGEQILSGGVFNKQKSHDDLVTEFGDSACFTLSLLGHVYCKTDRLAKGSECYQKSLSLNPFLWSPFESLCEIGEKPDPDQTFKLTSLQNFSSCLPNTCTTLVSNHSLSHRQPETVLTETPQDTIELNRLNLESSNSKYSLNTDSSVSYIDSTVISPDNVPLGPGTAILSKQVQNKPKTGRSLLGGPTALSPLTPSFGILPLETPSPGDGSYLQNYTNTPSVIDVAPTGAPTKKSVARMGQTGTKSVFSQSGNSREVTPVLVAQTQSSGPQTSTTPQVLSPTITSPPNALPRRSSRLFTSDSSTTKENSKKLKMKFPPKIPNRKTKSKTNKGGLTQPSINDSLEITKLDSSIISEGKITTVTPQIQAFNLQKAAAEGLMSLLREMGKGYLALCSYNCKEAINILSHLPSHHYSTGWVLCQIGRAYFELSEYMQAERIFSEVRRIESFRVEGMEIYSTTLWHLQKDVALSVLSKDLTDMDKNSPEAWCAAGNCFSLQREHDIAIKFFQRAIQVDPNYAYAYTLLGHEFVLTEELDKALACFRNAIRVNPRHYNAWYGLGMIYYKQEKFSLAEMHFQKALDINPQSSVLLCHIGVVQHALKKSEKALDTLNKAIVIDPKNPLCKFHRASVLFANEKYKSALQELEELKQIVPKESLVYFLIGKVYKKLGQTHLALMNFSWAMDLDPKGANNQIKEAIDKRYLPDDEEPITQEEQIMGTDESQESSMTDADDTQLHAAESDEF

Question: Which results are given for `COc1cc(/C=C/C(=O)CC(=O)/C=C/c2ccc(O)c(OC)c2)ccc1O` [Curcumin, (E,E)-1,7-bis(4-hydroxy-3-methoxyphenyl)-1,6-heptadiene-3,5-dion]?
Answer: cells remained in G2/M ([1]; six hours after release from mitotic block): 47.7%; cells remained in G2/M ([1]; two hours after release from mitotic block): 91.5%; cells found in G2/M ([1]; 20 μM curcumin, 10 hours of release from mitotic block): 69.8%; cells in the sub-G0/G1 fraction ([1]; 20 μM curcumin, after release from mitotic block): a significant amount of cells was in the sub-G0/G1 fraction; G0/G1 ([1]; 10 μM Curcumin, 0 Hr): 7.38 ± 3.12%; G2/M ([1]; 10 μM Curcumin, 0 Hr): 70.15 ± 0.75%; S ([1]; 10 μM Curcumin, 0 Hr): 17.68 ± 4.78%; Sub G0/G1 ([1]; 10 μM Curcumin, 0 Hr): 4.80 ± 2.40%; G0/G1 ([1]; 10 μM Curcumin, 2 Hr): 16.87 ± 4.87%; G2/M ([1]; 10 μM Curcumin, 2 Hr): 64.16 ± 7.74%; S ([1]; 10 μM Curcumin, 2 Hr): 10.76 ± 0.04%; Sub G0/G1 ([1]; 10 μM Curcumin, 2 Hr): 8.21 ± 2.91%; G0/G1 ([1]; 10 μM Curcumin, 4 Hr): 35.54 ± 1.94%; G2/M ([1]; 10 μM Curcumin, 4 Hr): 46.47 ± 0.17%; S ([1]; 10 μM Curcumin, 4 Hr): 9.47 ± 2.03%; Sub G0/G1 ([1]; 10 μM Curcumin, 4 Hr): 8.57 ± 0.13%; G0/G1 ([1]; 10 μM Curcumin, 6 Hr): 43.93 ± 3.13%; G2/M ([1]; 10 μM Curcumin, 6 Hr): 33.43 ± 5.27%; S ([1]; 10 μM Curcumin, 6 Hr): 12.07 ± 0.53%; Sub G0/G1 ([1]; 10 μM Curcumin, 6 Hr): 10.57 ± 2.67%; G0/G1 ([1]; 10 μM Curcumin, 8 Hr): 47.60 ± 4.00%; G2/M ([1]; 10 μM Curcumin, 8 Hr): 26.86 ± 6.24%; S ([1]; 10 μM Curcumin, 8 Hr): 15.54 ± 0.56%; Sub G0/G1 ([1]; 10 μM Curcumin, 8 Hr): 9.99 ± 2.79%; G0/G1 ([1]; 10 μM Curcumin, 10 Hr): 48.68 ± 8.18%; G2/M ([1]; 10 μM Curcumin, 10 Hr): 22.65 ± 11.35%; S ([1]; 10 μM Curcumin, 10 Hr): 19.88 ± 0.32%; Sub G0/G1 ([1]; 10 μM Curcumin, 10 Hr): 8.85 ± 3.45%; G0/G1 ([1]; 20 μM Curcumin, 0 Hr): 7.38 ± 3.12%; G2/M ([1]; 20 μM Curcumin, 0 Hr): 70.15 ± 0.75%; S ([1]; 20 μM Curcumin, 0 Hr): 17.68 ± 4.76%; Sub G0/G1 ([1]; 20 μM Curcumin, 0 Hr): 4.80 ± 2.40%; G0/G1 ([1]; 20 μM Curcumin, 2 Hr): 11.51 ± 2.81%; G2/M ([1]; 20 μM Curcumin, 2 Hr): 67.21 ± 5.39%; S ([1]; 20 μM Curcumin, 2 Hr): 13.86 ± 0.34%; Sub G0/G1 ([1]; 20 μM Curcumin, 2 Hr): 7.42 ± 2.92%; G0/G1 ([1]; 20 μM Curcumin, 4 Hr): 16.77 ± 1.63%; G2/M ([1]; 20 μM Curcumin, 4 Hr): 65.00 ± 1.30%; S ([1]; 20 μM Curcumin, 4 Hr): 10.77 ± 1.57%; Sub G0/G1 ([1]; 20 μM Curcumin, 4 Hr): 7.46 ± 1.36%; G0/G1 ([1]; 20 μM Curcumin, 6 Hr): 22.09 ± 0.81%; G2/M ([1]; 20 μM Curcumin, 6 Hr): 52.27 ± 5.63%; S ([1]; 20 μM Curcumin, 6 Hr): 14.02 ± 2.02%; Sub G0/G1 ([1]; 20 μM Curcumin, 6 Hr): 11.67 ± 4.37%; G0/G1 ([1]; 20 μM Curcumin, 8 Hr): 24.20 ± 0.30%; G2/M ([1]; 20 μM Curcumin, 8 Hr): 51.55 ± 9.55%; S ([1]; 20 μM Curcumin, 8 Hr): 13.45 ± 3.65%; Sub G0/G1 ([1]; 20 μM Curcumin, 8 Hr): 10.85 ± 5.55%; G0/G1 ([1]; 20 μM Curcumin, 10 Hr): 25.15 ± 0.85%; G2/M ([1]; 20 μM Curcumin, 10 Hr): 48.95 ± 10.95%; S ([1]; 20 μM Curcumin, 10 Hr): 14.22 ± 4.02%; Sub G0/G1 ([1]; 20 μM Curcumin, 10 Hr): 11.67 ± 6.07%; induction of high molecular weight bands of Cdc27 (crosslinking) ([2]; DAOY, 0, 3, 6, 9 or 24 hours): induces the formation of Cdc27 dimers; high molecular weight (MW) band of Cdc27 ([2]; curcumin-treated DAOY cells, immunoblot): approximately double the MW of Cdc27; pull-down of Cdc27 by curcumin-bound Sepharose beads [3]: pulled down Cdc27; Cdc27 levels in Smo/Smo mouse tumors [4]: reduced; sensitivity to curcumin-induced apoptosis (LDH release) [5]: almost unaffected; mitotic progression after release from mitotic block [6]: selectively blocks mitotic progression in different cell lines with phosphorylated APC3/Cdc27; curcumin-induced tubulin acetylation [7]: reduced
